Numbers after ± are expanded uncertainties.
Assay: xn = mol fraction of the nth substance listed
Details: 101 kPa, Liquid, Vibrating tube method

CNCCCN [N-methyl-1,3-diaminopropane] + CN(CCO)CCO
mass density [kg/m3]
Details | x1 = 0.1001 | x1 = 0.2003 | x1 = 0.2999 | x1 = 0.3997 | x1 = 0.5 | x1 = 0.5999 | x1 = 0.7001 | x1 = 0.8002 | x1 = 0.9 | x1 = 1
293.15 K | 1026.93 ± 0.89 | 1012.7 ± 0.86 | 997.588 ± 0.84 | 981.393 ± 0.82 | 964.134 ± 0.8 | 944.646 ± 0.78 | 923.928 ± 0.76 | 900.759 ± 0.73 | 876.717 ± 0.71 | 851.605 ± 0.67
303.15 K | 1019.31 ± 0.88 | 1005.01 ± 0.85 | 989.787 ± 0.83 | 973.417 ± 0.81 | 956.077 ± 0.79 | 936.426 ± 0.77 | 915.36 ± 0.74 | 892.077 ± 0.72 | 868.035 ± 0.7 | 842.69 ± 0.67
313.15 K | 1011.66 ± 0.86 | 997.273 ± 0.84 | 981.94 ± 0.82 | 965.391 ± 0.8 | 947.946 ± 0.78 | 928.152 ± 0.76 | 907.016 ± 0.74 | 883.714 ± 0.71 | 859.287 ± 0.69 | 833.715 ± 0.66
323.15 K | 1003.95 ± 0.85 | 989.479 ± 0.83 | 974.031 ± 0.81 | 957.394 ± 0.79 | 939.738 ± 0.77 | 919.85 ± 0.75 | 898.494 ± 0.73 | 874.972 ± 0.7 | 850.467 ± 0.68 | 824.673 ± 0.65
333.15 K | 996.181 ± 0.83 | 981.607 ± 0.82 | 966.033 ± 0.8 | 949.272 ± 0.78 | 931.432 ± 0.76 | 911.414 ± 0.74 | 889.941 ± 0.72 | 866.238 ± 0.7 | 841.566 ± 0.67 | 815.559 ± 0.64
343.15 K | 988.342 ± 0.83 | 973.656 ± 0.81 | 957.953 ± 0.79 | 941.042 ± 0.77 | 923.056 ± 0.75 | 902.895 ± 0.73 | 881.277 ± 0.71 | 857.422 ± 0.69 | 832.576 ± 0.66 | 806.37 ± 0.63
353.15 K | 980.415 ± 0.82 | 965.631 ± 0.8 | 949.783 ± 0.78 | 932.732 ± 0.76 | 914.593 ± 0.74 | 894.29 ± 0.72 | 872.517 ± 0.7 | 848.523 ± 0.68 | 823.509 ± 0.66 | 797.093 ± 0.62
363.15 K | 972.409 ± 0.81 | 957.499 ± 0.79 | 941.523 ± 0.77 | 924.324 ± 0.75 | 906.038 ± 0.73 | 885.584 ± 0.71 | 863.668 ± 0.69 | 839.559 ± 0.67 | 814.342 ± 0.65 | 787.723 ± 0.61

Source: the NIST ThermoML archive (doi:10.1021/je400679k)
